These results are taken from US11058734B2, “Probiotic strains having cholesterol absorbing capacity, methods and uses thereof” (BIOSEARCH, S.A., priority 2014, dated 2021).

This experiment has as its system HT-29 enterocytes. Kind of experiment: Fluoresterol absorption by HT-29 enterocytes (flow cytometry). The experiment is classed as cell-based. The conditions noted are these: Homo sapiens, Ezetimibe at maximum effective concentration 300 μM. Here is the method: HT-29 enterocytes were obtained from the CIC of the University of Granada (Spain) and cultured in DMEM medium supplemented with a 10% (v/v) of FBS, non-essential amino acids and 2 mM L-glutamine; at 37° C. and 5% (v/v) CO2. Cultures for fluoresterol absorption were grown for 14 days using 96-well plates, incubated for 3-4 h with micelles of fluoresterol and bacterial suspensions at 5·10^8 bacteria/mL, or […] Ezetimibe (MSD-SP Ltd) as positive control. Before fluorocytometric assays, HT-29 cultures were disagreggated by trypsin treatment, the medium and free micelles of fluoresterol removed by centrifugation and enterocytes suspended in PBS buffer.
Micelles of fluoresterol, containing 10 mM sodium taurocholate, 6 mM phosphatidylcholine and 0.2 mM fluoresterol were prepared as described by Sparrow et al. (Sparrow et al., 1999, J Lipid Res 40:1747-57). Fluoresterol absorption by bacteria was analyzed incubating bacterial suspensions (5·10^8 bacteria/mL) with micelles (0.1 mg/mL fluoresterol) in PBS buffer at 37° C. […] Finally, bacteria associated fluorescence was determined in a Tecan Genius microplate reader (485 nm excitation, 535 nm emission filters) or in a Beckton Dickinson FACScalibur flow cytometer. […] Absorbed fluoresterol was quantified based on the data of fluorescence (λex: 488 nm; λem: 530 nm) per cell obtained from 2,000 events in each sample. […]
For orientation: In flow cytometry, cells or beads pass a laser one at a time.

For `O=C1[C@H](CC[C@H](O)c2ccc(F)cc2)[C@@H](c2ccc(O)cc2)N1c1ccc(F)cc1` [Ezetimibe], the inhibition – broadly, the percentage by which the read-out fell short of the control – at 300 µM worked out at 40%.
